According to article PMC7108927, “TYK2 inhibition reduces type 3 immunity and modifies disease progression in murine spondyloarthritis” (The Journal of Clinical Investigation, 2020):

Tests used:
Assay in all cases: radiometric kinase assay with peptide substrate
Type in all cases: biochemical
JAK2 = JAK2 (Homo sapiens, UniProt O60674)
TYK2 = TYK2 (Homo sapiens, UniProt P29597)
JAK3 = biological target: T1, JAK3 (Homo sapiens, UniProt P52333)
T1 sequence (P52333 1-1124): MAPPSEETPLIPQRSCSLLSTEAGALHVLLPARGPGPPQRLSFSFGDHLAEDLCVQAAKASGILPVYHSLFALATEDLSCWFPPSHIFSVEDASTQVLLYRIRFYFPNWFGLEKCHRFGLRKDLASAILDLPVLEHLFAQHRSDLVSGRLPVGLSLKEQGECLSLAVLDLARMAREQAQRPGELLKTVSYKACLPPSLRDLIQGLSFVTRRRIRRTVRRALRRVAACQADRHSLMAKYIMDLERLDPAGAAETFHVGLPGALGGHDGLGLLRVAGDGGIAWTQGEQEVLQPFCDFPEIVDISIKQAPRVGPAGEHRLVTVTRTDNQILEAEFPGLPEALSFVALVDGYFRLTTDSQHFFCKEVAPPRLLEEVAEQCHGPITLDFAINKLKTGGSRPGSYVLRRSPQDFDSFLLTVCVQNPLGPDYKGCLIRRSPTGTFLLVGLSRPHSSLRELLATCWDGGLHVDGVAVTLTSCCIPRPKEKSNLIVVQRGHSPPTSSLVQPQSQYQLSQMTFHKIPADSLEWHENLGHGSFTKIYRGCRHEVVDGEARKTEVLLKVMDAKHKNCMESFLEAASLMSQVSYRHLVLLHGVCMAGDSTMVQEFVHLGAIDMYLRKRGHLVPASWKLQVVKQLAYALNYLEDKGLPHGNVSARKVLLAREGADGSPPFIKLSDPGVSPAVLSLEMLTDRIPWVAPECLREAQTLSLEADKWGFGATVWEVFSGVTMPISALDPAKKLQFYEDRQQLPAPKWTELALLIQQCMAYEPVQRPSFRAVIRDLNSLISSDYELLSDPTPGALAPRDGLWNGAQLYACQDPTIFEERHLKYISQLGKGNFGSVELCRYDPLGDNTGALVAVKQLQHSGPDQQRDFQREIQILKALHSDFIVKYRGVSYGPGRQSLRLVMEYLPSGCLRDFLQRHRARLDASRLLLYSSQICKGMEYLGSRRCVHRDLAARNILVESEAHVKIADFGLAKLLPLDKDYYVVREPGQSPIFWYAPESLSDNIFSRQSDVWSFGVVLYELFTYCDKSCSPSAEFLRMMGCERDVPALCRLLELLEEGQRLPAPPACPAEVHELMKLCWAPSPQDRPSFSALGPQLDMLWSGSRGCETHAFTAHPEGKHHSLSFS

JAK1 = JAK1 (Homo sapiens, UniProt P23458)
Sequence of JAK1 (P23458 whole entry): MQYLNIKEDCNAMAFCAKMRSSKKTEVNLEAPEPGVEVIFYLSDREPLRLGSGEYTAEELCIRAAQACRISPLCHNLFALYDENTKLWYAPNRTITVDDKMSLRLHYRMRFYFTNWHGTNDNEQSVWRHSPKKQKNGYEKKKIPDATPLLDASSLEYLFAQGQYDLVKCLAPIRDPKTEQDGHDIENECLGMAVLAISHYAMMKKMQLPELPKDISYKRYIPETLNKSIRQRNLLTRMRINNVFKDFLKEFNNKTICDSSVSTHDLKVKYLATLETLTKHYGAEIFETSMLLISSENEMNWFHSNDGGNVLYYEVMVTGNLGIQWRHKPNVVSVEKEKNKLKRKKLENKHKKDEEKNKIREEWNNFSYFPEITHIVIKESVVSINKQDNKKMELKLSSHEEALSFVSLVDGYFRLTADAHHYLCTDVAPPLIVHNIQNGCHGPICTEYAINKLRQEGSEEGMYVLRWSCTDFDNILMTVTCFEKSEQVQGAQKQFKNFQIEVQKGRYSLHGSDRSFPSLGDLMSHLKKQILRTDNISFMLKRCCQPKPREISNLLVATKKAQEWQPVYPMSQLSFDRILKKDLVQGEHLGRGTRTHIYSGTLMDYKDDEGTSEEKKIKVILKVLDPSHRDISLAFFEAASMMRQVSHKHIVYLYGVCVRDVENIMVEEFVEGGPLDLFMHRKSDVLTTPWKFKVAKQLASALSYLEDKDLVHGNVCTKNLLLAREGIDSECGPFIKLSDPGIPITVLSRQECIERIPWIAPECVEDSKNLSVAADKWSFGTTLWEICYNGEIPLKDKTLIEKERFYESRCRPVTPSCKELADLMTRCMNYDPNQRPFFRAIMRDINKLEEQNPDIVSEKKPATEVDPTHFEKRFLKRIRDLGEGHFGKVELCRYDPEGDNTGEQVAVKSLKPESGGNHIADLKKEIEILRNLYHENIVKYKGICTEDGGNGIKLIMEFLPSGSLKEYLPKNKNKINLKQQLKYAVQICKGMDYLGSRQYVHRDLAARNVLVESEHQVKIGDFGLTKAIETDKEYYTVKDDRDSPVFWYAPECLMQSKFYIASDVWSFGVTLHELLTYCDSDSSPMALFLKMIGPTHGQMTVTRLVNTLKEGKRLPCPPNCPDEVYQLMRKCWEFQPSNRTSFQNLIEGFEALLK

Sequence of TYK2 (P29597 whole entry): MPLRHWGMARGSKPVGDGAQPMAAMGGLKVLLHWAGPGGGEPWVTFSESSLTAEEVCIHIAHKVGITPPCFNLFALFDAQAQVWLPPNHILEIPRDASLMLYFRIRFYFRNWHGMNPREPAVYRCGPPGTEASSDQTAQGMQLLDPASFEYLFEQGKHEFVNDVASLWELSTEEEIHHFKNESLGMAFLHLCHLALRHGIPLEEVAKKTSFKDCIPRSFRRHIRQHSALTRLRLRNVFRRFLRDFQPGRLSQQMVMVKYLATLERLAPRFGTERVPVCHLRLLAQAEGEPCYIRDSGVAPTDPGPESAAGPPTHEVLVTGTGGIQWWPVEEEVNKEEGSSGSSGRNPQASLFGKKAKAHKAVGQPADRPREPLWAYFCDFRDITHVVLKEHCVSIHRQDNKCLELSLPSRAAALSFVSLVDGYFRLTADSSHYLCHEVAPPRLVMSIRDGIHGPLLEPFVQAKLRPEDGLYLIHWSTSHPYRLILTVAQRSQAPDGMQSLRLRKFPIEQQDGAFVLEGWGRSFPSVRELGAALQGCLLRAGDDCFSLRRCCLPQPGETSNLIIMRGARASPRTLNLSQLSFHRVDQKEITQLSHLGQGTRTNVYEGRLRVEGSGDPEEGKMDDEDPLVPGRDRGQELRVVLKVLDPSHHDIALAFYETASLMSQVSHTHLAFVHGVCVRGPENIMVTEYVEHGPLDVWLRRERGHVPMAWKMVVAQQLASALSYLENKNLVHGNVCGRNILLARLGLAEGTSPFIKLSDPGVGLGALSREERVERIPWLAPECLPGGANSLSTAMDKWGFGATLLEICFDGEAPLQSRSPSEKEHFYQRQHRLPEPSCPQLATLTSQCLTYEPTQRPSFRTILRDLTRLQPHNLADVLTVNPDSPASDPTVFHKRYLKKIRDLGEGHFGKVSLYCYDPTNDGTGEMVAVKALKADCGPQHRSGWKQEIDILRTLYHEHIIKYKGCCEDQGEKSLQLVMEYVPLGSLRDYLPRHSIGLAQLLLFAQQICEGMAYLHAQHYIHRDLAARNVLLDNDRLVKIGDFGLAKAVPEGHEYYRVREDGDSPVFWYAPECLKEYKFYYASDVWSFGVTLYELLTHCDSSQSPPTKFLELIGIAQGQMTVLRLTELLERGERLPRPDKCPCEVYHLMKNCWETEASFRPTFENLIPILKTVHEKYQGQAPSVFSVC
Sequence of JAK2 (O60674 whole entry): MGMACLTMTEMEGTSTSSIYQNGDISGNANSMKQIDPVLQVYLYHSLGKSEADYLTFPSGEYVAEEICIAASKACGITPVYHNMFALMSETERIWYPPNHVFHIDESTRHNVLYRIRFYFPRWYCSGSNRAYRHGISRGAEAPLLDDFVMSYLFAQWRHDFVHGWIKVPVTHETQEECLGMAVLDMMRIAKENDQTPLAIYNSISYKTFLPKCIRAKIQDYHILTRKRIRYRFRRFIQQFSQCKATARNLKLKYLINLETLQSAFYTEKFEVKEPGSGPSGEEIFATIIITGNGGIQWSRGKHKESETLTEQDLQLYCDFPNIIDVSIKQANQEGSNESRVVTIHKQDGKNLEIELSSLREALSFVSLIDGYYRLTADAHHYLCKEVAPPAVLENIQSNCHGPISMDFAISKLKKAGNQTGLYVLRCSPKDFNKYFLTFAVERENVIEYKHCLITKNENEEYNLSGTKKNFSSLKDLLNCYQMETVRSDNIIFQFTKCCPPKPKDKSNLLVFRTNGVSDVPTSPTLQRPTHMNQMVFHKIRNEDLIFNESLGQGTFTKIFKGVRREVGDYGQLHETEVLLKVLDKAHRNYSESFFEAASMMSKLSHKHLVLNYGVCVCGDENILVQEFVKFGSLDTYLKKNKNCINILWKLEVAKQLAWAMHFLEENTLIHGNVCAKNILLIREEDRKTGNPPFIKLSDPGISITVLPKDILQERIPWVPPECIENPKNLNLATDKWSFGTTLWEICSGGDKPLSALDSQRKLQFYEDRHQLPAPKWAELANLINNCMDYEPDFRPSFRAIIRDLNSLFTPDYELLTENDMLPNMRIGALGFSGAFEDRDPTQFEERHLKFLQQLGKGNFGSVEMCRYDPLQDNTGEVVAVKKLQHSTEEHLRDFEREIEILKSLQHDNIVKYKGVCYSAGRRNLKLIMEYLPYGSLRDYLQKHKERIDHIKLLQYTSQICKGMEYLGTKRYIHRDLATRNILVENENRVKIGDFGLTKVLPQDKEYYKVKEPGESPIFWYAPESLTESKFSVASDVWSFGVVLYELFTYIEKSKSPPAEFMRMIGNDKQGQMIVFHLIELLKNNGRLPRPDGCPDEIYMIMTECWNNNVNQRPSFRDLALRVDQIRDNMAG

NDI-031407 was tested, and the IC50 (JAK2) was 0.031 µM, the IC50 (TYK2) was 0.00021 µM and the IC50 (JAK3) was 0.0042 µM. For the same substance, the IC50 (JAK1) was 0.046 µM.
